Source: patent US20120213826A1, “Use of Pro-Inflammatory Compounds for Promoting Bone Formation” (Imperial Innovations Limited, priority 2009, published 2012)
Entries after “also recorded” stand apart in the source; their conditions may differ. Where two headings read alike, the source gives them in different places.

Legend:
[1] = system: muscle-derived stromal cells (MDSC); assay: MDSC migration through a transwell membrane; format: cell-based, human
Experimental: Migration of 1×10^4 MDSC through an 8 μm pore transwell membrane over 36 hours, in response to fracture supernatant with the addition of AbTNF-α, AbIL-6 and AbIL-1β. The IgG^1 immunoglobulin was used as the antibody control. B: Migration in response to rhTNF-α, rhIL-6 and rhIL-1β in human serum-containing media. Results represent change in cell number, expressed as a percentage of the supernatant, or media only control. Each experiment was performed 3 times (n=3) using 3 fracture supernatants (in A). Results represent mean of 3 experiments ±SEM. *: P<0.05; **: P<0.01; ***: P<0.001; 1-way ANOVA with Bonferroni's multiple comparison test.
MDSC must be recruited to the fracture site from adjacent muscle. Next we assessed the efficacy of the pro-inflammatory cytokines in attracting MDSC in vitro using a transwell assay. 1×10^4 MDSC were seeded onto a 8 μm transwell membrane in serum free media. Next day, the transwell membrane was added to a well containing 10% human serum-containing media +IL-1β, IL6 and TNFα at the end concentrations shown. At 24 hrs the membrane was cleared of any cells on the seeded side, fixed and stained. IL-1β appeared not promote MDSC chemotaxis.
500 μl serum free media was added to each well of a 24 well plate. 8 μm pore transwell membranes (VWR International Ltd) were then added to the wells. 1×10^4 MDSC in serum free media were added to the upper chamber of each transwell membrane. At 12 hours the serum-free media was replaced with test or control media or supernatant and incubated at 37° C. for 36 hours. The upper chambers were then cleared of cells and cell debris using a cotton bud, in sweeping motions. The membrane was then washed and fixed using 10% neutral buffered formalin for 1 hour. After washing, the membrane was then added to a 1% crystal violet solution for 1 hour. After further washing, the membranes were viewed under light microscopy at 20 times magnification, using an Olympus CKX41 microscope with a QICAM camera, (QIMAGING, GT vision LLC). The number of cells present on the underside of the transwell membrane in any random field was counted 3 times and the mean calculated. Cell migration was calculated against the supernatant or human serum-containing (control) media and the number expressed as a percentage relative to the control media.

[2] = system: muscle-derived stromal cells (MDSC); assay: MDSC proliferation (CellTiter-Glo luminescent cell viability assay); format: cell-based, human
Experimental: CellTiter-Glo® luminescent cell viability assay for MDSC in culture with A: TNF-α, B: IL-6 and C: IL-1β. 2.5×10^3 cells were cultured in triplicate for 1, 3 and 5 days in human serum-containing media ± recombinant human cytokine at the concentration indicated. The number of viaBIe cells in culture was determined using the assay, where luminescent signal is directly proportional to the concentration of ATP from viaBIe cells.
In order to test this hypothesis, proliferation of MDSC in human serum-containing media with rhTNF-α, rhIL-6 and rhIL-1β was tested using the CellTiter-Glo® luminescent cell viability assay was used (Promega Corp., Madison, Wis.).
This method assays the number of viaBIe cells in culture, by measuring adenosine triphosphate (ATP), where the luminescent signal is directly proportional to the number of ATP present.

[3] = system: murine open tibial fracture; assay: Murine open tibial fracture model, periosteally stripped (histology, CT scans); format: in vivo, C57BI/6 mice
[4] = cited from earlier work

TNFα
chemotaxis / migration of MDSC ([1]; Example 1, transwell, 10% human serum-containing media, 24 hrs (FIG. 14)): promote chemotaxis of MDSC; also recorded: promoted migration of MDSC | migration of MDSC ([1]; Example 3, 8 μm transwell, 36 hours, recombinant cytokine in human serum-containing media (FIG. 27B)): chemo attractant for MDSC | optimal concentration for MDSC migration ([1]; Example 3, transwell, 36 hours (FIG. 27B)): 1 pg/mL | proliferation of MDSC ([2]; Example 1 discussion, TNFα 1 ng/ml): led to proliferation of MDSC | MDSC proliferation ([2]; Example 3, 1, 3 and 5 days in human serum-containing media ± recombinant human cytokine (FIG. 28)): do not promote MDSC proliferation | optimal dose for fracture healing ([3]; 20 μl in PBS at fracture site, histology day 14 (FIG. 18)): 50 ng/mL | optimal dose range for fracture healing ([3]; 20 μl in PBS, 1 ng/ml equivalent to 1 ng/kg, histology day 14 (FIG. 18)): around 50 ng/kg | healing of tibial fractures by CT scans ([3]; 28 days post injury, local administration at fracture site (TNFα 50 ng/kg and HMGB1 at time of fracture and 24 hr later) (FIG. 19, 30)): improved healing | fracture healing ([3]; TNFα 5 ng/ml at fracture site (FIG. 18)): less pronounced effect | fracture healing ([3]; TNFα 500 ng/ml (500 ng/kg) at fracture site, versus PBS vehicle (FIG. 18)): inhibitory | fracture healing ([3]; TNFα 500 ng/ml (500 ng/kg) at fracture site, versus PBS vehicle (FIG. 18), listed as rhTNFα): inhibits fracture healing | fracture healing compared to control C57BI/6 mice ([3]; exogenous addition at fracture site, histology day 14, log dose range 5-500 ng/ml (FIG. 18)): accelerated fracture healing | plasma half life ([4]; in the presence of soluble TNFα receptors): up to 6 hours | plasma half life ([4]; in vivo): less than 1 hour
